One experiment deals with melanoma. The following applies: other melanoma models; cited from earlier work.
For a further experiment, the system named is murine melanoma cells. To be noted: in vivo administration; cited from earlier work.
The subject of experiment [1] is xenografted human melanoma cells. The following applies: immunodeficient mice; cited from earlier work.
Experiment [2] has as its system B-RAF- and K-RAS-induced lung cancer. The following applies: mouse models of B-RAF- and K-RAS-induced lung cancer; cited from earlier work.
A further experiment has as its system CD11b+Gr1+ myeloid cells. To be noted: WT mice, HDC 24 hours before B16F10 inoculation.
Experiment [3] concerns ROS production of WT lung cells. To be noted: in vitro, HDC 10-1,000 μmol/L added 5 minutes before WKYMVm.
Protocol: (§2) Superoxide anion production was determined by use of the isoluminol-electrogenerated chemiluminescence technique as described elsewhere. Briefly, single-cell suspensions of lungs were diluted to 10^7 cells/mL in Krebs-Ringer glucose buffer supplemented with isoluminol (10 mg/mL; Sigma-Aldrich) and horseradish peroxidase (HRP, 4 U/mL, Boehringer) and added to 96-well plates that were incubated at 37° C. Phorbol myristate acetate (PMA, 5×10^−8 M, Sigma-Aldrich) or the formyl peptide receptor agonist Trp-Lys-Tyr-Met-Val-D-Met (WKYMVm) (10^−5 M, Tocris Bioscience) were added for induction of ROS production. Light emission was recorded continuously using a FLUOstar Omega plate reader (BMG). In some experiments, HDC (10-1,000 μmol/L, final concentrations) was added 5 minutes prior to the addition of WKYMVm.
For another experiment, the system named is lung NK cells. The experiment is described as follows: IFNγ production ex vivo in cocultures of lung cells and B16 cells (ELISA). Also noted: species or system mouse. The following applies: WT mice treated with HDC in vivo; lungs 30 minutes after B16F10 inoculation; coculture with B16 cells. Here is the method:
Mice were pretreated with HDC (1,500 μg) or PBS on the day before i.v. inoculation of B16F10 cells. Thirty minutes after tumor cell inoculation mice were sacrificed and single-cell lung cell suspensions were prepared. Lung cells were cocultured overnight with B16 cells (500,000 cells/mL) in flat bottom 96-well plates at effector:target cell ratios of 1:1 to 50:1. Supernatants were collected after 24 hours and the IFNγ content was determined by ELISA (Mouse IFNγ DuoSet ELISA, R&D Systems).

The test system of the next experiment is B16F10 cells. The experiment is described as follows: Lung metastasis after i.v. inoculation of B16F10 melanoma cells. It is filed as in vivo, mouse. The following applies: for number of lung metastases: 3 weeks. As to the method:
(§1) C57BL/6 mice were obtained from The Charles River Laboratories. B6.129S6-Cybb^tm1Din(Nox2^−/− or Nox2-KO) mice that lack the myeloid gp91^phox subunit NOX2 and, thus, a functional ROS-forming NOX2 were obtained from The Jackson Laboratory. […] Naïve C57BL/6, Nox2-KO, and Ifng-KO mice (6-12 weeks of age) were treated intraperitoneally (i.p.) with PBS (control), HDC (Sigma, 1,500 μg/mouse), IL15 (0.04 μg/mouse), alone or combined, on the day before, the day after, and 3 days after intravenous (i.v.) inoculation of B16F10 cells (5×10^4-15×10^4 cells/mouse) or B16F1 cells (20×10^4-30×10^4 cells/mouse). Three weeks after tumor inoculation, mice were euthanized by cervical dislocation followed by harvesting of lungs and spleens. Lung metastasis was determined by counting visible pulmonary metastatic foci under a light microscope. The experimental design is outlined in FIG. 1A.
Gr1^+ cells were depleted by i.p. injections of 400 μg anti-Gr1 antibody (BioXCell, Clone RB6-8C5) 2 days before B16 cell inoculation. […] NK cells were depleted by i.p. injections of 250 μg anti-NK1.1 antibody (BioXCell, Clone PK136) 4 days and 2 days before B16F10 cell inoculation.
Spleens were harvested from WT C57BL/6 mice and single-cell suspensions were prepared. Splenocytes were enriched for NK cells by passage through nylon wool columns (Polysciences). NK cells were then negatively selected using an NK-cell isolation kit II (Miltenyi Biotech) according to the manufacturer's instructions to a purity of >70%. Five million enriched NK cells were injected i.v. 12 hours before inoculation of B16F10 cells. WT NK cells in Ifng^−/− mice were detected 2 days after adoptive transfer by collecting peripheral blood followed by DNA extraction and PCR. The primer pair used for detection of WT Ifng was 5′ […] 3′ (SEQ ID NO:02) and 5′ […] 3′ (SEQ ID NO:03). For detection of the disrupted IFNγ gene (Ifng−/−) the primer pair 5′ […] 3′ (SEQ ID NO:04) and 5′ […] 3′ (SEQ ID NO:05) was used.

The subject of experiment [4] is ROS formation of lung cell suspensions. To be noted: mice pretreated with HDC the day before B16 inoculation; PMA; 30 minutes and 24 hours.
Protocol: (§3) For assessment of the impact of NOX2 inhibition on immune parameters during the early phase of tumor progression, mice received HDC at 1,500 μg/mouse or PBS (control) 1 day before the inoculation of B16F10 cells followed by dissection of lungs at 30 minutes or 24 hours after tumor cell inoculation as shown in FIG. 2A.
(§4) Lung tissues were dissociated into single cells by combining enzymatic degradation of extracellular matrix with mechanical dissociation using gentle MACS Technology (Miltenyi Biotech) based on instructions provided by the manufacturer.
as §2
Another experiment relates to NK cells. The following applies: WT mice, 3 weeks after tumor cell inoculation; % of live CD45+ cells. As to the method: as §1
For the next experiment, the system named is B16F1 cells. To be noted: 200,000 cells in WT, 300,000 in Nox2-/- mice; 3 weeks. Here is the method: as §1
The mark [5] stands for this setting: Nox2-KO mice, 150,000 B16F10 cells i.v., i.p. treatment days -1, 1, 3.
[6] abbreviates: WT mice, 100,000 B16F10 cells i.v., i.p. treatment days -1, 1, 3 (HDC 1,500 μg/mouse, IL15 0.04 μg/mouse).

These results are taken from US20200399642A1, “METHODS AND COMPOSITIONS FOR TREATING AND PREVENTING METASTATIC TUMORS” (IMMUNE PHARMACEUTICALS, INC., priority 2017, published 2020).

Where two headings read alike, the source gives them in different places.

Protocol for CD11b+Gr1+ myeloid cells: as §3, §4
The following fluorochrome-labeled antimouse mAbs were purchased from BD Biosciences: anti-CD45 (30-F11), anti-CD11c (HL3), anti-IaIe (2G9), anti-CD3 (145-2311), anti-CD4 (RM4-5), anti-CD8 (53-6.7), anti-NK1.1 (PK136), anti-CD19 (1D3), anti-CD11b (M1/70), anti-Gr1 (RB6-8C5), anti-CD40 (3/23), and anti-Ly6C (AL-21). Anti-CD33 (29A1.4) was from Ebiosciences; anti-F4/80 (BM8) and anti-CD69 (H1.2F3) were from BioLegend. LIVE/DEAD Fixable Yellow Dead Cell Stain Kit or DAPI (both from Invitrogen) were used as cell viability markers in flow cytometry analyses. A minimum of 100,000 gated live cells were collected on a four-laser BD LSRFortessa (405, 488, 532, and 640 nm). Data were analyzed using FACSDiva Version 8.0.1 software (BD Biosciences).

With `CC(=O)N[C@@H](CS)C(=O)O` [N-acetyl-cysteine], in the experiment with melanoma, the lymph node metastasis result is “enhances lymph node metastasis”. For the same compound, in the experiment on murine melanoma cells, the “tumorigenicity of murine melanoma cells” value is “reduces the tumorigenicity”. In addition, the “metastasis of xenografted human melanoma cells” value in [1] was “accelerates the metastasis”. Besides, in experiment [2], the tumor progression entry was “accelerates tumor progression”.

Turning to `Cl.Cl.NCCc1c[nH]cn1` [HDC, histamine dihydrochloride], the “degree of influx of myeloid cells into lungs” value in the experiment with CD11b+Gr1+ myeloid cells was “did not alter”. The “subcutaneous growth of EL-4 thymoma tumors” value is recorded as “but not in Nox2-KO mice” in the experiment with EL-4 thymoma tumors (Nox2-KO mice) and “reduces the subcutaneous growth” in the experiment with EL-4 thymoma tumors (WT mice). Besides, in [3], the “ROS formation from WT lung cells” value is on record as “dose-dependently suppressed”. For the same compound, the “IFNγ produced ex vivo by lung NK cells” value with lung NK cells is listed as “higher concentrations of IFNγ”. Further, the lung metastasis entry with B16F10 cells (Gr1+-depleted WT mice, B16F10) is “did not affect metastasis”. The entries for the “antimetastatic efficacy of HDC” value with B16F10 cells (Ifng-KO mice after adoptive transfer of IFNγ-producing WT NK cells) and with B16F10 cells (Ifng-KO mice after adoptive transfer of Ifng-KO NK cells) were “significantly restored the antimetastatic efficacy” and “but not the transfer of Ifng-KO NK cells”, respectively. Further, the melanoma metastasis result in the experiment on B16F10 cells (Ifng-KO mice, B16F10) is recorded as “did not reduce melanoma metastasis”; in the experiment with B16F10 cells (animals depleted of NK cells (anti-NK1.1), WT and Nox2-/-, B16F10) it was “did not inhibit melanoma metastasis”. In addition, the “number of lung metastases” value in the experiment on B16F10 cells (setting [5]) is on record as “not observed”; with B16F10 cells (setting [6]), “decreased the number of lung metastases”. Also, in experiment [4], the “ROS formed ex vivo in lung cell suspensions” value is listed as “reduced”. Further, in the experiment with NK cells, the “NK-cell counts in lungs” value is “increased NK-cell counts in lungs”. In addition, the “lung metastasis formation by B16F1” value in the experiment with B16F1 cells is recorded as “NOX2-dependent, antimetastatic effect”.

For the compound IL15: NK cell-activating cytokine IL15, the “number of lung metastases” value with B16F10 cells (setting [5]) and in the experiment on B16F10 cells (setting [6]) was “exerted antimetastatic activity” in each case.
